Values of other authors, collected in patent US7067320B2, “Sensor for luminescense-optical determination of an analyte” (Roche Diagnostics Operations, Inc., priority 2000, dated 2006).
Where two headings read alike, the source gives them in different places.

Compound | pKa | pKa (second value printed in the same cell)
Dibromoxylenol blue | 7.6 | –
O=S1(=O)OC(c2cc(Br)c(O)c(Br)c2)(c2cc(Br)c(O)c(Br)c2)c2ccccc21 [Bromophenol blue] | 3.8 | –
O=C1C=CC(=Nc2ccc(O)cc2)C=C1Cl [o-chlorophenol-indophenol] | 7.1 | –

Results, then the compound that gave them:

pKa | pKa (second value printed in the same cell) | Compound
8.0 | – | Cc1ccc(O)c(N=Nc2c(O)cc(S(=O)(=O)O)c3ccccc23)c1 [Calmagit]
6.7 | – | Cc1c(C2(c3cc(C(C)C)c(O)c(Br)c3C)OS(=O)(=O)c3ccccc32)cc(C(C)C)c(O)c1Br [Bromothymol blue]
6.7 | 7.9 | O=C1OC(c2ccc(O)c3ccccc23)(c2ccc(O)c3ccccc23)c2ccccc21 [Naphthol-phthalein]
